Reference: US20230312652A1, “NOVEL PEPTIDES AND USES THEREOF” (Aarhus Universitet, priority 2020, published 2023)
Where a SMILES comes first, the peptide text is derived from it.

How the values were obtained:
[1] = tested on: GRN(+/-) cortical neurons; test: Survival of GRN-deficient cortical neurons, MTT assay; format: cell-based, mouse; conditions: 1 uM on DIV7, 9, 11, 13 and 15; MTT at DIV16
cortical neurons = test: Survival of wild-type cortical neurons, MTT assay; format: cell-based, mouse; conditions: for relative survival compared to control: 1 uM on DIV7, DIV9 and DIV11, MTT at DIV12
Protocol: Cortical neurons were isolated from p0 wild-type mice and seeded in a density of 50.000 in a 96-well plate pre-coated with poly-L and laminin and incubated at 37° C. in a 5% C02 atmosphere. At 7 days in vitro (DIV7) the neurons were treated by changing half the media with neurobasal A with B27 containing the peptides (P2, P4 or P6) to give a finale concentration of 1 uM and further incubated. The cortical neurons were treated in a likewise manner on DIV9 and DIV11. At DIV12 half the media was removed and 3-(4,5-dimethylthiazole-2-yl)-2,5-diphenyltetrazolium bromide (MTT) was added to the media to give a finale concentration of 0.5 mg/mL. MTT is reduced by mitochondrial enzymes in active cells to an insoluble product called formazan, which can be detected by colorimetry. Thus, the colour generated reflects activity and viable cells in the culture. The neurons were incubated for 4 hours with MTT and thereafter lysed in a 50% EtOH and 50% DMSO solution. To assure proper mixing of formazan, the plate was left to shake for 30 minutes before being measured at 570 nm and 650 nm. Student's t-test was used for statistical analysis.
Further, a drug-dose response on survival for peptide P1 was assessed in a similar manner.

CREB and AMPK = CREB and AMPK activation in brain of wild-type mice after subcutaneous injection; format: in vivo, mouse; conditions: 3.6 mg/kg SC, separate study
Protocol: To assess the subcutaneous administration route of peptide P1, 8 weeks old wild-type mice were subcutaneously injected with different doses ranging between 0.13 to 26 mg/kg of peptide P1 dissolved in 4.38 mM L-His, 140 mM NaCl, 0.2% Tween-20 and 1500 IU hyaluronidase (pH 6.15). Likewise, was an earlier lead peptide constituting a linear version of P1 attached to a cell-penetrating moiety (P9, SEQ ID NO: 9), tested for its ability to activate CREB in both striatum and hippocampus (in a separate study) following subcutaneous injection with 3.6 mg/kg. 2 hours after injection the mice were sacrificed by cervical dislocation and striatal tissue was isolated by dissection and snap frozen in liquid nitrogen and stored at −80° C. until further use. To assess the activation of CREB and AMPK, the tissue was lysed using a TissueLyser in lysis buffer containing cOmplete and DTT. The samples were subsequently homogenized by sonication. The phosphorylation of CREB on serine 133 and threonine 172 on AMPK was subsequently validated by western blotting and the levels of were normalized to beta-actin. Student's t-test was used for statistical analysis.

SV2A = SV2A levels in wild-type neurons, western blotting; format: cell-based, mouse; conditions: 0.1 uM or 1 uM from DIV8 for 3 days
Protocol: Hippocampal neurons were isolated from p0 wild-type mice and seeded in a density of 250,000 per well in 12-well trays precoated with poly-L and laminin. At DIV8 the neurons were treated with 0.1 uM or 1 uM P6 for 3 days. The neurons were lysed in RIPA buffer containing cOmplete and phosSTOP and SV2A levels were validated by western blotting, normalized to beta-actin.

hippocampal neurons = test: Neuronal branching in wild-type hippocampal neurons; format: cell-based, mouse; conditions: DIV1 to DIV4
Protocol: Hippocampal neurons were isolated from p0 wild-type mice and seeded in a density of 10.000 per well in 24-well trays containing poly-D and laminin coated coverslips. At DIV1 the neurons were treated with 0.1 uM or 1 uM P6. BDNF (1 nM) was used as a positive control. At DIV4 the neurons were fixed and immunostained for MAP2, a marker of dendrites. Pictures of MAP2 were taken of neurites with 20 neurons pr. coverslip. The neurites may not be in contact with other neurites from other neurons. The pictures were analysed in Imaris Software. The number branches were counted manually.

CREB [2] = test: CREB activation (phosphorylation on serine 133) in wild-type cortical neurons, western blotting; format: cell-based, mouse; conditions: 20 minutes, 7 days in vitro
Protocol: (§1) To assess the ability of peptides P1, P2 and P6, respectively, to activate transcription factor CREB, cortical neurons were isolated from p0 wild-type mice and seeded in a density of 500.000 per well. After 7 days in vitro the neurons were stimulated with the different peptide variants at 1 uM in neurobasal A media and incubated at 37° C. and 5% C02 for 20 minutes. Hereafter, the neurons were lysed in lysis buffer containing DTT and cOmplete cocktail protease inhibitor and subsequently sonicated to disrupt the nuclear membrane. The phosphorylation of CREB on serine 133 was validated by western blotting normalized to beta-actin. As control, cells were stimulated with a scrambled peptide (Scr). Student's t-test was used for statistical analysis.
as §1, with “The” for “To assess the”, “peptide P1” for “peptides P1, P2”, “a linear peptide analog of P1 with acetylated N- and amidated C-terminals (referred to as LP1)” for “P6, respectively,”, “CREB was assessed. Cortical” for “CREB, cortical”, “20 nM” for “1 uM”, “CO2” for “C02”

[3] = tested on: spared nerve injury (SNI) model; test: Spared nerve injury mouse model, daily dosing, von Frey test; format: in vivo; conditions: single SC dose daily for 8 days from 1 day post-SNI operation
Protocol: (§2) To assess the effect of peptide P3 on neuropathic pain, the spared nerve injury (SNI) model was used. The threshold for mechanical pain response is determined by testing with von Frey filaments of increasing bending force, which are repetitively pressed against the lateral area of the paw. Two baseline measurements were made before SNI operation. In brief, the common peroneal and tibial branches of the sciatic nerve were ligated and cut distally to the ligation, just distal to the branching of the sural nerve, which was left untouched. The mechanical allodynia was subsequently assessed with von Frey testing 17 days post-surgery. […] Student's t-test was used for statistical analysis.
Mice, surgery and von Frey testing was performed as in Example 28.
Student's t-test was used for statistical analysis.

[4] = tested on: spared nerve injury (SNI) model; test: Spared nerve injury mouse model, acute, von Frey test; format: in vivo; conditions: single SC dose 17 days post-SNI operation
Protocol: as §2

[5] = tested on: AMPK (T172) and CREB (S133); test: P1 activation of AMPK and CREB with or without CaMKK2-inhibitor STO-609 in cortical neurons; format: cell-based, mouse; conditions: 5 uM STO-609
Protocol: Mouse cortical neurons were isolated from p0 wild-type mice and seeded in a density of 250,000 per well in a 12-well tray. After 7 days in vitro the neurons were either pre-treated with STO-609 (5 uM) for 1 hour or with DMSO (control). After 1 hour, the neurons were stimulated with P1 or a scrambled peptide (Scr), with or without STO-609, in neurobasal A media and incubated at 37° C. and 5% CO2 for 20 minutes. Hereafter, the neurons were lysed in lysis buffer containing DTT and cOmplete cocktail protease inhibitor. Phosphorylation of AMPK (T172) and CREB (S133) was validated by western blotting and normalized to beta-actin.

CREB [6] = test: CREB activation in striatum and hippocampus of wild-type mice after IV injection; format: in vivo, mouse; conditions: 0.26 mg/kg IV, 1 hour after injection
Protocol: To assess this, 8 weeks old wild-type mice were injected intravenously with either 0.26 mg/kg of peptide P1 or LP1 dissolved in saline. 1 hour after the injection, the mice were sacrificed by cervical dislocation and striatal tissue was isolated by dissection and immediately lysed using a TissueLyser in lysis buffer containing cOmplete and DTT. The samples were subsequently homogenized by sonication. The phosphorylation of CREB on serine 133 was subsequently validated by western blotting. The levels of phosphorylated CREB were normalized to the corresponding beta-actin levels. Student's t-test was used for statistical analysis.

[7] = biological target: mouse plasma (plasma proteins); test: plasma binding: 2 uM P1 in plasma, ultracentrifugation, LCMS
mouse brain homogenate = test: brain homogenate binding: 2 uM P1, ultracentrifugation, LCMS
[8] = biological target: human plasma (plasma proteins); test: plasma binding: 2 uM P1 in plasma, ultracentrifugation, LCMS; % Bound=100*(1-F/T4.5)

Molecule: [MIEPVEHEESR] [Peptide P4]
- relative survival compared to control [1]: increased the relative survival
- relative survival compared to control (cortical neurons): increased the relative survival

Molecule: YARAAARNARAEKEQEMTDPVDHDEDVQGAVQ (Linear peptide) [Peptide P9, reference compound]
- pCREB in hippocampus (CREB and AMPK): not able to notably activate CREB
- pCREB in striatum (CREB and AMPK): not able to notably activate CREB

Molecule: [MIGSVEQEENA] [Peptide P6]
- SV2A levels (SV2A): increased SV2A levels
- relative survival compared to control [1]: increased the relative survival
- neurite branching (hippocampal neurons; 0.1 uM): increased neurite branching similar to BDNF
- neurite branching (hippocampal neurons; 1 uM): increased neurite branching similar to BDNF
- activation of CREB (phosphorylation on serine 133) compared to scrambled peptide (CREB [2]; 1 uM): markedly activated CREB
- relative survival compared to control (cortical neurons): increased the relative survival

Molecule: [MTDPVDHDEDV] [Peptide P2]
- relative survival compared to control [1]: increased the relative survival
- activation of CREB (phosphorylation on serine 133) compared to scrambled peptide (CREB [2]; 1 uM): markedly activated CREB
- relative survival compared to control (cortical neurons): increased the relative survival

Molecule: [MTAPVAHAEDV] [Peptide P3]
- neuropathic pain, von Frey test [3]: continuously reduced the neuropathic pain
- neuropathic pain, von Frey test [4]: attenuated the pain in an acute manner

Molecule: O=C(O)c1ccc2c3c1cccc3c(=O)n1c3ccccc3nc21 [STO-609, reference compound]
- AMPK phosphorylation following STO-609-treatment [5]: inhibition of AMPK

Molecule: CSCC[C@H](NC(C)=O)C(=O)N[C@H](C(=O)N[C@@H](CCC(=O)O)C(=O)N1CCC[C@H]1C(=O)N[C@H](C(=O)N[C@@H](CCC(=O)O)C(=O)N[C@@H](Cc1c[nH]cn1)C(=O)N[C@@H](CCC(=O)O)C(=O)N[C@@H](CCC(=O)O)C(=O)N[C@@H](CC(=O)O)C(=O)N[C@H](C(N)=O)C(C)C)C(C)C)[C@@H](C)O [LP1, Ac-MTEPVEHEEDV—NH2, reference compound] (Ac-MTEPVEHEEDV-NH2)
- pCREB (S133) in hippocampus (CREB [6]): increase phosphorylated CREB
- pCREB (S133) in striatum (CREB [6]): increase phosphorylated CREB
- activation of CREB (phosphorylation on serine 133) compared to scrambled peptide (CREB [2]; 20 nM): activated CREB to a lesser extent

B1: Cyclic peptide P1 (peptide)
peptide: MTEPVEHEEDV
modifications: Cyclic (backbone): head-to-tail cyclized via the M amino acid residue in position 1 and the V amino acid residue in position 11
- unbound in plasma [7]: > 75%
- brain homogenate binding (mouse brain homogenate): < 20%
- plasma binding [8]: 20%

B2: BDNF (protein, UniProt P23560 19-247, looked up)
Neurotrophic factor BDNF …: APMKEANIRGQGGLAYPGVRTHGTLESVNGPKAGSRGLTSLADTFEHVIEELLDEDQKVRPNEENNKDADLYTSRVMLSSQVPLEPPLLFLLEEYKNYLDAANMSMRVRRHSDPARRGELSVCDSISEWVTAADKKTAVDMSGGTVTVLEKVPVSKGQLKQYFYETKCNPMGYTKEGCRGIDKRHWNSQCRTTQSYVRALTMDSKKRIGWRFIRIDTSCVCTLTIKRGR
notes: neurotrophic factor used as a positive control
- survival in drug-dose response study (cortical neurons; BDNF as positive control): increased survival to a lesser extent than peptide P1
